Data from patent publication US20110154874A1, “MIXTURE FOR THE TREATMENT OF UREA-CONTAINING FERTILIZERS” (FERTIVA GmbH, priority 2007, published 2011).
“And” between values parts separate entries of the source, which are not always exact repeats. Identical values can stand only once.

How the values were obtained:
[1] = Storage test over 30 days, NBPT loss on treated granulated urea (HPLC analysis); format: physicochemical; settings: active compound applied to urea
Protocol: In a further storage test over 30 days at 30° C. and an atmospheric humidity of 60%, the NBPT losses measured (HPLC analysis) were as indicated below. At the beginning of the storage test, the NBPT was applied in a concentration of 0.12% by weight, based on the fertilizer, in a solution having the composition indicated below. The carrier fertilizer used was granulated urea.

Chinese cabbage = settings: in vivo

Compound	stabilizing action on the active compound [1]	Fresh mass of shoots 21 days after planting (Chinese cabbage)
CN1CCCC1=O [N-methylpyrrolidone (NMP), N-methylpyrrolidone]	no stabilizing action	
NC(N)=O [Urea]		14.3 g/pot and 20.05 g/pot and 11.65 g/pot
